Laboratory results taken from patent publication US5012004A, “Ether compounds and their production, and insecticidal and/or acaricidal compositions containing them” (priority 1987, dated 1991).
Like-named read-outs stand apart in the source and are kept apart here.

Legend:
Format in all cases: in vivo
[1] = tested on: eggs of diamondback moth (Plutella xylostella); assay: Ovicidal test: mortality of eggs of diamondback moth on dipped radish cotyledons (Test Example 1); settings: 72 h, read-out: Mortality (%) of the eggs
Text: Seven days after sowing, adults of diamondback moth (Plutella xylostella) were released to cotyledons of three radishes for oviposition (about 15 eggs per 1 cotyledon). […] After air-drying, the seedlings were taken into a cup made of polyethylene at the bottom of which were placed a filter paper.

[2] = tested on: female carmine spider mites (Tetranychus cinnabarinus); assay: Plant damage by female carmine spider mites on kidney bean, pot spray plus soil application (Example 4); settings: ca. 500 ppm, 15 ml spray per pot plus 2 ml to soil, eight days thereafter
Procedure: (§1) One of Compound Nos. 1 to 38 (10 parts), polyoxyethylene styrylphenyl ether (14 parts), calcium dodecylbenzenesulfonate (6 parts), xylene (35 parts) and dimethylformamide (35 parts) are well mixed to make an emulsifiable concentrate.
Adults of female carmine spider mites (Tetranychus cinnabarinus) were permitted to live on leaves (10 mites per leaf) of kidney bean seven days after sowing in the pots, and the mites were kept at 25° C. in a greenhouse. After 6 days, a 200 fold dilution (ca. 500 ppm) of the emulsifiable concentrate prepared according to Formulation Example 2 was sprayed over the pots placed on a turn table at a spray volume of 15 ml per pot, and also 2 ml of the dilution were applied to the soil in each pot. Eight days thereafter, the plant damage by the mites was observed and evaluated according to the following criteria:
______________________________________
-: no material damage to leaves
+: slight damage to leaves

[3] = tested on: last instar larvae of common mosquito (Culex pipiens pallens); assay: Emergence inhibition of last instar larvae of common mosquito (Test Example 3); settings: read-out: Rate of emergence inhibition (%)
Procedure: as §1
An emulsifiable concentrate prepared according to Formulation Example 2 was diluted with water to make a concentration of 3.5 ppm. The dilution (100 ml) was charged in a plastic cup (each 180 ml volume), and twenty last instar larvae of common mosquito (Culex pipiens pallens) were released therein. Feeding was continued until emergence of all larvae, and the rate of emergence inhibition was observed.
The rate of emergence inhibition was determined according to the following criteria:
Rate of emergence inhibition […]
b: less than 90% to not less than 80% inhibition c: less than 80% inhibition

[4] = tested on: adults of brown rice planthopper (Nilaparvata lugens); assay: Mortality of adults of brown rice planthopper on dipped rice stems (Test Example 2); settings: 24 h, 200 fold dilution (ca. 500 ppm), one day thereafter, two replications
Text: as §1
Stems of rice plants (about 12 cm in length) were dipped in a 200 fold dilution (ca. 500 ppm) of the emulsifiable concentrate prepared according to Formulation Example 2. After air-drying, the stems were taken into a test tube and 10 adults of brown rice planthopper (Nilaparvata lugens) were released therein.

[5] = 200 fold dilution (ca. 500 ppm), cotyledons dipped 30 seconds, three days thereafter, two replications
[6] = 3.5 ppm, twenty last instar larvae, until emergence

| Structure (SMILES) | mortality at 500 µg/mL [1, 5] | Plant damage [2] | mortality at 500 µg/mL [1] | other results |
| --- | --- | --- | --- | --- |
| FCCOc1cccc(COc2ccc(Oc3ccccc3)cc2)c1 [compound 18] | 100% | - ~ + |  | inhibition at 3.5 ppm [3, 6]: > 90% |
| FCCOc1ccc(Oc2cccc(F)c2)cc1 [Compound No. 23, 1-(2-fluoroethoxy)-4-(3-fluorophenoxy)benzene] | 100% |  |  | mortality at 500 µg/mL [4]: 100%; inhibition at 3.5 ppm [3]: > 90% |
| FCCOc1ccc(-c2ccc(OCCF)cc2)cc1 [compound 12] |  |  | 100% |  |
| FCCOc1ccccc1CBr [compound 14] |  |  | 100% |  |
| Cc1ccc(OCCF)cc1 [compound 8] |  |  | 100% |  |
| FCCOc1ccc2c(c1)OCO2 [compound 13] | 100% |  |  |  |
| FCCOc1cccc(-c2ccccc2)c1 [compound 21] | 100% | - ~ + |  | inhibition at 3.5 ppm [3]: > 90% |
| FCCCCOc1ccc(Oc2ccccc2)cc1 [compound 25] | 100% |  |  | inhibition at 3.5 ppm [3, 6]: > 90% |
| FCCOc1ccc(OCc2ccccc2)cc1 [A, reference compound] |  |  |  | mortality at 500 µg/mL [4]: 0%; inhibition at 3.5 ppm [3]: 80 to 90% |
| FCCOc1ccc(Sc2ccccc2)cc1 [compound 33] | 100% | - |  | mortality at 500 µg/mL [4]: 100%; inhibition at 3.5 ppm [3]: > 90% |
| CC(C)(c1ccccc1)c1ccc(OCCF)cc1 [compound 31] | 100% |  |  |  |
| FCCOc1ccc(Sc2ccc(OCCF)cc2)cc1 [compound 34] | 100% |  |  | inhibition at 3.5 ppm [3]: > 90% |
| FCCOc1ccc(C(F)F)cc1 [Compound No. 10, 1-difluoromethyl-4-(2-fluoroethoxy)benzene] | 100% |  |  |  |
| O=C(c1ccccc1)c1ccc(OCCF)cc1 [compound 36] | 100% | - |  |  |
| COc1cccc(OCCF)c1 [compound 5] |  |  | 100% |  |
| FCCOc1ccc(COc2ccc(Oc3ccccc3)cc2)cc1 [compound 19] | 100% |  |  | inhibition at 3.5 ppm [3, 6]: > 90% |
| CC(C)(c1ccc(OCCF)cc1)c1ccc(OCCF)cc1 [compound 32] | 100% |  |  | inhibition at 3.5 ppm [3, 6]: > 90% |
| Cc1cc(Cl)ccc1OCCF [compound 9] |  |  | 100% | inhibition at 3.5 ppm [3]: > 90% |
| FCCOc1ccc2oc3ccccc3c2c1 [Compound No. 35, 2-(2-fluoroethoxy)-dibenzofuran] | 100% | - |  | inhibition at 3.5 ppm [3]: > 90% |
| Cc1cccc(OCCF)c1 [compound 7] |  |  | 100% |  |

| Structure (SMILES) | mortality at 500 µg/mL [1, 5] | Plant damage [2] | mortality at 500 µg/mL [1] | other results |
| --- | --- | --- | --- | --- |
| FCCOc1ccc(Cc2ccccc2)cc1 [compound 30] | 100% | - ~ + |  | mortality at 500 µg/mL [4]: 100% |
| FCCOc1ccc(Oc2ccccc2)cc1 [Compound No. 22, 1-(2-fluoroethoxy)-4-phenoxybenzene] | 100% | - ~ + |  | mortality at 500 µg/mL [4]: 100%; inhibition at 3.5 ppm [3]: > 90% |
| FCCOc1ccccc1 [Compound No. 1] |  |  | 100% |  |
| FCCOc1cccc(Oc2ccccc2)c1 [compound 29] | 100% |  |  | mortality at 500 µg/mL [4]: 90% |
| FCCOc1ccc(OCCF)cc1 [compound 11] |  | - ~ + | 100% | mortality at 500 µg/mL [4]: 100%; inhibition at 3.5 ppm [3]: > 90% |
| Cc1cc(Cl)ccc1N=CN(C)C [B, N'-(4-chloro-2-methylphenyl)-N,N-dimethylformamidine, reference compound] |  | + |  |  |
| CCC(F)COc1ccc(Oc2ccccc2)cc1 (stereo not shown) [compound 28] | 100% |  |  | inhibition at 3.5 ppm [3, 6]: > 90% |
| FCCOc1ccc(F)cc1 [Compound No. 2] |  |  | 100% |  |
| FCCOc1cccc(Cl)c1 [compound 4] |  |  | 100% |  |
| Cc1ccccc1OCCF [compound 6] |  |  | 100% |  |
| FCCOc1ccccc1-c1ccccc1 [Compound No. 20, 1-(2-fluoroethoxy)-2-phenylbenzene] | 100% |  |  | mortality at 500 µg/mL [4]: 100% |
| FCCOc1cccc(CBr)c1 [compound 15] |  |  | 100% |  |
| CC(CF)Oc1ccc(Oc2ccccc2)cc1 (stereo not shown) [compound 26] | 100% |  |  | inhibition at 3.5 ppm [3, 6]: > 90% |
| FCCOc1ccc(CBr)cc1 [compound 16] |  |  | 100% |  |
| FCCOc1ccc(OC2C=CCCC2)cc1 (stereo not shown) [compound 38] | 100% | - |  |  |
| O=C1c2ccccc2-c2ccc(OCCF)cc21 [compound 37] | 100% | - ~ + |  |  |
| FCCOc1ccccc1COc1ccc(Oc2ccccc2)cc1 [compound 17] | 100% | - |  |  |
| CC(F)COc1ccc(Oc2ccccc2)cc1 (stereo not shown) [compound 27] | 100% |  |  | inhibition at 3.5 ppm [3, 6]: > 90% |
| FCCOc1ccc(Oc2cc(F)cc(F)c2)cc1 [compound 24] | 100% |  |  | inhibition at 3.5 ppm [3]: > 90% |
| FCCOc1ccccc1Cl [Compound No. 3] |  |  | 100% | mortality at 500 µg/mL [4]: 100% |
